Results from PMC6733504, “Effects of flavoring compounds used in electronic cigarette refill liquids on endothelial and vascular function” (PLoS ONE, 2019).
pIC50: −log10 of the molar value.

Columns and labels:
[1] = target: T1, soluble guanylate cyclase (sGC) (Bos taurus, UniProt P16068+P19687); assay: Activity of purified sGC stimulated with DEA/NO; format: biochemical, bovine; settings: for Emax of DEA/NO-stimulated sGC activity in presence of flavoring: flavoring 1 mM, DEA/NO 0.01–10 μM
T1 construct: The activity of sGC purified from bovine lung; from tissue; host or cells: bovine lung
T1 sequence (P19687 1-691): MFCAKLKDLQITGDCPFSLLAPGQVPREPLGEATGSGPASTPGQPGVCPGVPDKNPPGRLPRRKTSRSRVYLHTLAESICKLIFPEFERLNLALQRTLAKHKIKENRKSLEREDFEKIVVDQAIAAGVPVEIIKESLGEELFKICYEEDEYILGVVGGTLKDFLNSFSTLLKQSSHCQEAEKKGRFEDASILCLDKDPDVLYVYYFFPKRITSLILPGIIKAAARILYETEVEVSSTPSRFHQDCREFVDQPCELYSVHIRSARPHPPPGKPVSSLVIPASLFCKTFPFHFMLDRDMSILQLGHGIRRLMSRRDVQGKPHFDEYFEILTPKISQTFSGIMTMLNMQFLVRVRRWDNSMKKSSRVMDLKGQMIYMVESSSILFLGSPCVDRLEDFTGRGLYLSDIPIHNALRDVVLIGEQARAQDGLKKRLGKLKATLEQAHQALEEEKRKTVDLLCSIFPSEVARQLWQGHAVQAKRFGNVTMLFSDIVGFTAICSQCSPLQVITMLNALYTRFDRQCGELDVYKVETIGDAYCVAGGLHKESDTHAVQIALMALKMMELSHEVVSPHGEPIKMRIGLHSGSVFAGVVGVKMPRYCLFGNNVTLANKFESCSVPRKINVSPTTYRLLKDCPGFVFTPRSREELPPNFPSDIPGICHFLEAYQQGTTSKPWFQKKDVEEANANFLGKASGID
T1 sequence (P16068 1-619): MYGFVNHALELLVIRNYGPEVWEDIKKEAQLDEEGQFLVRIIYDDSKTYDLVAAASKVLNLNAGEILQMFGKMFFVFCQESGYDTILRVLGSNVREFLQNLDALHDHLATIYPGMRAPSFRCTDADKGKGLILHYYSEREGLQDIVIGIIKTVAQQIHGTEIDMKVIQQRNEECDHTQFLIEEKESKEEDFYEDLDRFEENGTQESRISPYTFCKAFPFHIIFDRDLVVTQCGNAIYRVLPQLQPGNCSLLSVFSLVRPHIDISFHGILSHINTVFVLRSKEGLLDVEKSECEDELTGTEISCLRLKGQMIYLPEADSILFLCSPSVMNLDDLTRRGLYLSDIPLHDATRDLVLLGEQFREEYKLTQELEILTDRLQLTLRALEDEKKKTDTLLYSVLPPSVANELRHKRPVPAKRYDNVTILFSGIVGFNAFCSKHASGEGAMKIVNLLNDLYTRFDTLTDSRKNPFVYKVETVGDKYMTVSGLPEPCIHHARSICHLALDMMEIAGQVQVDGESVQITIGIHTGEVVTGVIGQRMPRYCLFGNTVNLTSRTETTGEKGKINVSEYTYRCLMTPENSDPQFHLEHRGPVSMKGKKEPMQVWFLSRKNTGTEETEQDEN
Method: The activity of sGC purified from bovine lung was determined as formation of [^32P]cGMP from [α-^32P]GTP. The purified enzyme (50 ng) was incubated at 37°C for 10 min in a final volume of 0.1 ml in the absence or presence of flavorings with the NO donor DEA/NO at concentrations indicated in the figure legends, followed by isolation of [^32P]cGMP and quantification of radioactivity (Cerenkov radiation) in a β counter.
To test for reversibility of inhibition, sGC (50 ng) was preincubated in the absence or presence of the respective compounds for 5 minutes at 37°C, followed by 50-fold dilution in the assay mixtures and incubation with DEA/NO at 37°C for 10 minutes.

[2] = target: T2, NO synthase (NOS) (Sus scrofa, UniProt Q28969); assay: Endothelial L-citrulline formation (NOS activity in intact cells); format: cell-based, porcine; settings: for Direct effect on NOS-catalyzed L-citrulline formation: 1 mM, absence of A23187 (S1 Fig)
T2 construct: endogenous in cells; host or cells: primary porcine aortic endothelial cells (up to 3 passages)
T2 sequence (Q28969 1-1205): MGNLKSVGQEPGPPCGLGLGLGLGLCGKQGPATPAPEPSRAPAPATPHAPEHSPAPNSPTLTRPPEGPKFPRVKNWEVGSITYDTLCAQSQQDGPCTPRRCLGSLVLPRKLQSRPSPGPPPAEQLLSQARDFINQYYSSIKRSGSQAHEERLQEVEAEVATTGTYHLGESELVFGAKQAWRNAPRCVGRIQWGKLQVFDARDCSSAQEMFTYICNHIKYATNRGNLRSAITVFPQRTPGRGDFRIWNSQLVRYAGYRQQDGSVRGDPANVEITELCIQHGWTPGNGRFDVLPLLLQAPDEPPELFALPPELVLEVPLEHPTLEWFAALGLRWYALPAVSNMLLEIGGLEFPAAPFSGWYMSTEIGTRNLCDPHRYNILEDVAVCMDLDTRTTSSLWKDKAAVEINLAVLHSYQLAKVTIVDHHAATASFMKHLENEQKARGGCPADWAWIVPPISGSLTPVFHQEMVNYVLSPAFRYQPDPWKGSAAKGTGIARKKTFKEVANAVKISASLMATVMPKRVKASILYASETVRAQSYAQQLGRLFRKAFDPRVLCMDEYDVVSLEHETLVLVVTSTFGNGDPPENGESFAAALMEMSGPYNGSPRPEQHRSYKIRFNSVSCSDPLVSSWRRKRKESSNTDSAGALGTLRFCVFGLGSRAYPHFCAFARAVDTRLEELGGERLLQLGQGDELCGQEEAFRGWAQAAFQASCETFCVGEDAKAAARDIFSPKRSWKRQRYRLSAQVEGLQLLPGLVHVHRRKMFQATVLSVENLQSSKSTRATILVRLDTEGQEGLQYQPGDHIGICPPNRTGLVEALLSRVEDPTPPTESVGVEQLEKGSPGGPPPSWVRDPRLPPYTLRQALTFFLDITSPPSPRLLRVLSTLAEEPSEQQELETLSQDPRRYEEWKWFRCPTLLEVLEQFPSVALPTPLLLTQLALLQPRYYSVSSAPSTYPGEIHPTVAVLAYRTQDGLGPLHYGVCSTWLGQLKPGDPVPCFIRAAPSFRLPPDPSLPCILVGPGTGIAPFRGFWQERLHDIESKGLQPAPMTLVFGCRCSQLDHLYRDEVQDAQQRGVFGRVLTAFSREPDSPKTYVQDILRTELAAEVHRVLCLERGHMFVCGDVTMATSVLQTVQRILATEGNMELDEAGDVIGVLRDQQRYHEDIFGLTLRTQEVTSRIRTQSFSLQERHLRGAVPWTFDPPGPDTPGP
Method: NO synthase (NOS) activity in intact cells was determined by monitoring the conversion of L-[^3H]arginine into L-[^3H]citrulline as previously described. […] Subsequent to lysis of the cells with 0.01 M HCl, an aliquot was removed for determination of incorporated radioactivity. To the remaining sample, 200 mM sodium acetate buffer ([…]) containing 10 mM L-citrulline was added (final pH ~5.0), and L-[^3H]citrulline was separated from L-[^3H]arginine by cation exchange chromatography.

SMILES	Emax of DEA/NO-stimulated sGC activity in presence of flavoring [1] [µmol cGMP x min-1 x mg-1]	Direct effect on NOS-catalyzed L-citrulline formation [2]	pIC50 ([1]; DEA/NO 0.05 μM, 95% CI)	Reversal of sGC inhibition by 50-fold dilution ([1]; enzyme pre-incubated 5 minutes with 1 mM)	Concentration inhibiting Ca2+-stimulated NO synthase activation [2] [mM]	Effect on A23187-stimulated L-citrulline formation (endothelial NOS activity) ([2]; 0.3 and 1.0 mM (Fig 2A))
C=CCc1ccc(O)c(OC)c1 [Eugenol, 2-Methoxy-4-(prop-2-en-1-yl)phenol]	28±1.1	neither eugenol nor cinnamaldehyde increased	–	–	–	–
O=C/C=C/c1ccccc1 [Cinnamaldehyde, (2E)-3-Phenylprop-2-enal]	24±0.8	neither eugenol nor cinnamaldehyde increased	3.25	largely	≥ 0.3	significantly inhibited
